# Source: PubChem BioAssay (NCI)
#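 Compound exposure: 48 hours, 5 concentrations, 96-well plates. At the GI50, growth is halved. TGI is the concentration that stops growth completely.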
# How the values were obtained:
# Assay in all cases: inhibition of tumour cell growth, NCI panel, 48 h
# SK-MEL-28 melanoma = system: SK-MEL-28 melanoma
# NCI-H460 lung = system: NCI-H460 lung
# SN12C renal = system: SN12C renal
# HCC-2998 colon = system: HCC-2998 colon
# HOP-92 NSCLC = system: HOP-92 NSCLC
# U251 CNS = system: U251 CNS
# UACC-62 melanoma = system: UACC-62 melanoma
# SF-268 CNS = system: SF-268 CNS
# MDA-MB-231 breast = system: MDA-MB-231 breast
# BT-549 breast = system: BT-549 breast
Structure (SMILES),TGI (SK-MEL-28 melanoma) [µM],TGI (NCI-H460 lung) [µM],TGI (SN12C renal) [µM],TGI (HCC-2998 colon) [µM],TGI (HOP-92 NSCLC) [µM],TGI (U251 CNS) [µM],TGI (UACC-62 melanoma) [µM],TGI (SF-268 CNS) [µM],GI50 (SK-MEL-28 melanoma) [µM],GI50 (MDA-MB-231 breast) [µM],TGI (MDA-MB-231 breast) [µM],GI50 (NCI-H460 lung) [µM],GI50 (SN12C renal) [µM],GI50 (HCC-2998 colon) [µM],GI50 (BT-549 breast) [µM],TGI (BT-549 breast) [µM],GI50 (U251 CNS) [µM],GI50 (UACC-62 melanoma) [µM],GI50 (SF-268 CNS) [µM],GI50 (HOP-92 NSCLC) [µM]
COc1cc(C2c3cc4c(cc3[C@@H](N(C)C)[C@H]3COC(=O)C23)OCO4)cc(OC)c1O (stereo not given in full),> 100,> 100,> 100,> 100,68.1,> 100,> 100,> 100,–,–,–,–,–,–,–,–,–,–,–,–
COc1ccccc1NC(=O)C1=C(C)NC(C)=C(C(=O)Nc2ccccc2OC)C1c1ccc(N(C)C)cc1,58,> 100,> 100,38.2,38.6,> 100,–,> 100,–,–,–,–,–,–,–,–,–,–,–,–
CCCCN(CCCC)CCc1c(C)cc(C)c(CCN(CCCC)CCCC)c1O,> 100,9.59,9.43,32.6,–,42.6,29.7,> 100,3.97,2.43,8.56,2.91,2.85,3.17,2.78,6.87,3.24,2.86,3.23,–
Cc1nn(CNc2ccccc2C(F)(F)F)c(=S)n1/N=C/c1ccc(F)cc1,> 100,> 100,–,> 100,> 100,–,> 100,> 100,50,25.9,> 100,> 100,–,> 100,> 100,> 100,–,35.4,> 100,34.8
COC(=O)c1ccc(C(=O)OC)c2nc3cc(C)ccc3nc12,> 100,> 100,> 100,> 100,> 100,> 100,> 100,> 100,–,–,–,–,–,–,–,–,–,–,–,–
CN1C(=O)C2C=CC1C1CCC2N(C)C1=O (stereo not given),> 100,–,> 100,> 100,> 100,> 100,> 100,> 100,–,–,–,–,–,–,–,–,–,–,–,–
CC(/C=C/NNC1=NC(c2ccccc2)C(c2ccccc2)=NN1)Sc1ccccc1N (stereo not given),21.3,24.9,18.2,29.9,22.8,8.39,10.8,16,–,–,–,–,–,–,–,–,–,–,–,–
NC(=O)c1csc(C2CCC(CO)O2)n1 (stereo not given),> 100,> 100,> 100,> 100,> 100,> 100,> 100,> 100,–,–,–,–,–,–,–,–,–,–,–,–
S=P(N1CCCC1)(N1CC1)N1CC1,> 100,> 100,> 100,> 100,–,> 100,> 100,> 100,–,–,–,–,–,–,–,–,–,–,–,–
O=C(O)c1cccc(/C=C/c2ccccc2)c1,> 100,> 100,> 100,–,> 100,> 100,> 100,> 100,–,–,> 100,–,–,–,–,> 100,–,–,–,–
Cc1cccc(N=C2NC(=O)C(CC(=O)Nc3ccc(C)cc3C)S2)c1 (stereo not given),> 100,> 100,> 100,> 100,> 100,> 100,> 100,> 100,–,–,–,–,–,–,–,–,–,–,–,–
O=c1cc(-c2ccccn2)[nH]c2cc(F)ccc12,> 100,> 100,> 100,> 100,> 100,–,> 100,> 100,–,–,–,–,–,–,–,–,–,–,29.5,–
C[C@]12CC[C@H]3[C@@H](CC[C@]4(O)C[C@@H](O)CC[C@]34CO)[C@@]1(O)CC[C@@H]2C1=CC(=O)OC1,22.5,1.81,11,67.9,18.9,–,11.4,3.25,–,–,> 51.3,–,–,–,–,3.68,–,–,–,–
CC1(O)CCC2(C)C(=O)C1(C)CCC21OCCO1 (stereo not given),> 100,> 100,> 100,> 100,> 100,> 100,–,> 100,–,–,–,–,–,–,–,–,–,–,–,–
NNS(=O)(=O)c1cc(C(=O)O)cc(C(=O)O)c1,> 100,> 100,> 100,–,> 100,> 100,> 100,> 100,–,–,> 100,–,–,–,–,> 100,–,–,–,–
COC(=O)[C@H]1N[C@@H](C(=O)OC)C23CCC[C@H]2CC[C@]1(C(OC)OC)C3,> 100,> 100,> 100,> 100,> 100,> 100,> 100,> 100,–,–,–,–,–,–,–,–,–,–,–,–
Cc1c(C(=O)CC(=O)C(=O)Nc2cc(Cl)ccc2Cl)[n+](=O)c2ccccc2n1[O-],> 100,99.5,> 100,> 100,> 100,> 100,40.2,> 100,–,–,–,–,–,–,–,–,–,–,–,–
CC1=NOC(=O)C1N=Nc1ccc(Br)c(C)c1 (stereo not given),48.7,58.6,48.5,60.6,34.4,37.8,37.7,47.6,–,–,–,–,–,–,–,–,–,–,–,–
CCCCN(CC)c1ncnc2ccc(Br)cc12,46.5,52.9,40.9,44.2,33.8,44.9,34.7,68,18.1,–,–,17.9,18.8,20.5,–,–,18.2,15.7,19.1,9.44
Nc1ccc(C(=O)CC2(O)C(=O)Nc3c(Cl)cc(Cl)cc32)cc1 (stereo not given),> 100,> 100,> 100,> 100,> 100,95.7,–,> 100,–,–,–,–,–,–,–,–,–,–,–,–
COC(=O)C(CC(=O)c1c[nH]c2ccccc12)c1c[nH]c2ccccc12 (stereo not given),42.1,37.9,–,45.5,–,50.4,> 10,–,–,–,–,–,–,–,–,–,–,–,–,–
CC[C@H](Nc1nc(N)nc(C2CC2)c1C#N)c1nc2cccc(NCc3ccc(C(=O)NO)cc3)c2c(=O)n1-c1ccccc1,7.44,3.79,5.39,5,4.59,–,–,4.12,2.67,1.42,3.86,1.7,1.79,1.95,2.5,7.84,–,–,1.74,1.73
